How the values were obtained:
Brca1-null ID8 tumors = assay: Subcutaneous Brca1-null ID8 tumors in WT or STING-KO mice; format: in vivo, mouse
Procedure: Single cells were obtained by digestion of primary ovarian tumors in collagenase buffer and then cultured in MOT media (DMEM/F12, 0.6% FBS, 10 ng/ml EGF, hydrocortisone 1 μg/ml, cholera toxin 1 ng/ml, 100 μg/ml penicillin-streptomycin, 5 μM Y27632). Tumor cells were transduced with lentiviral vector encoding luciferase (pLenti-blasticidin-luciferase) and then subjected to 3 days antibiotic selection with blasticidin 2 μg/ml. These luciferased tumors were transplanted orthotopically into syngeneic FVB/NJ mice to generated tumors for drug evaluation. Olaparib (AZD2281) was used by diluting 100 mg/ml stocks in DMSO with 10% 2-hydroxyl-propyl-β-cyclodextrine/PBS and administered daily by i.p. injection at dose of 50 mg/kg body weight. Mouse anti-PD-1 monoclonal antibody kindly provided by Gordon Freeman at DFCI was diluted in PBS (250 μg/100 μl/mouse) and injected by i.p. every 3 days. BX795 (Cat # HY-10514/CS-0259, MedChem Express) was prepared in DMSO (100 mg/ml) as stock solution and diluted in (25% PEG400+0.5% Tween)/PBS and administered daily by i.p. injection at dose of 30 mg/kg body weight. Anti-IFNAR1 antibody (Cat # BE0241; clone, MAR1-5A3; InVivoMab) was diluted in PBS (200 μg/100 μl/mouse) and injected by i.p. every 3 days. Tumor-bearing mice were equivalently divided into control and treatment groups according to the luminescent intensity. The endpoints were determined by tumor burden and ascites. For the CD8 depletion experiment, mice were injected intraperitoneally with anti-CD8 antibody (400 μg; clone YTS 169.4, BioXcell) 24 and 48 h before beginning olaparib treatment (50 mg/kg/day) and every 4 days thereafter.
Brca-1 deficient ID8 cells were generated using a CRISPR double nickase plasmid. […] Due to a lack of a reliable mouse BRCA1 antibody for Western blot, cells were analyzed by DNA sequencing to confirm the disruption of functional Brca1 allele. […]

PPM cells = assay: Cytosolic dsDNA (PicoGreen) and micronuclei staining, PPM cells; format: cell-based, mouse; conditions: 2.5 μM, 24 h
Procedure: PBM and PPM cells were cultured on chambered cell culture slides (BD Falcon). Cells were treated with 2.5 μM olaparib or vehicle control (DMSO) for 24 hours. Following the treatment, cells were incubated with culture media containing PicoGreen double-stranded DNA stain (200-fold dilution, Life Technologies). After one-hour incubation, cells were fixed with 4% paraformaldehyde in PBS (Santa Cruz Biotechnology) for 10 minutes. Cells were then washed twice with PBS and stained with 300 nM DAPI (Thermo Fisher Scientific) for 10 minutes. Coverslips were mounted using ProLong Diamond Antifade Mountant (Thermo Fisher Scientific). Staining was imaged using a Leica SP5X laser scanning confocal microscope.

PPM tumor bearing mice = assay: Flow cytometry of tumor-infiltrating immune cells in PPM tumors; conditions: mouse, in vivo
Procedure: Tumors were first mechanically disrupted by chopping, then chemically digested in collagenase buffer (8 mL DMEM, 0.1 mL 1M HEPES, 0.5 mL FBS, 0.2 mL Pen/Strep, 1 m, 10× collagenase/hyaluronidase (Stemcell Technologies), 0.2 mL of 1 mg/mL DNase I (Stemcell Technologies) at 37° C. for 45 min. Single-cell suspensions of spleen and lymph nodes were obtained by mashed through a 70 um strainer using the plunger of a 3 mL or 5 mL syringe. Single cells suspensions were treated with red blood lysis buffer (4 mL NH4Cl+1 mL PBS with 2% calf serum) and washed with FACS buffer. Single cells suspensions were incubated with LIVE/DEAD Fixable Aqua Dead Cell Stain (Life Technologies, Cat # L34965) for 30 min and then blocked with anti-CD16/32 (BioLegend, clone 93) for 20 min on ice. Samples were then incubated with appropriate antibodies for 30 min. on ice. The Foxp3 staining buffer set (eBioscience, Cat #00-5523-00) was applied for intracellular markers staining. For the intracellular cytokine analysis, cells were stimulated with Leukocyte Activation Cocktail (BD Biosciences, Cat #550583) at 37° C. for 5 hours prior to FACS staining. […] Flow cytometry was performed on an LSR II (BD Biosciences) or LSRFortessa™ HTS (BD Biosciences) at the DFCI flow cytometry core facility, and all the data were analyzed using FlowJo software.

PBM tumor tissues = assay: Gene Set Enrichment Analysis of PBM tumor tissues; format: in vivo, mouse; conditions: 18 days of treatment, vs vehicle; panel of 4604 genes
Procedure: RNA was isolated from tumor samples as described above, sequenced on the ion Torrent platform per manufacturer's instructions using a custom AmpliSeq panel targeting 4604 murine genes relevant to our studies, and raw data was processed using the Torrent Suite and AmpliSeqRNA plugin to give read counts per gene. Differential gene expression analyses were carried out using DESeq2 with default parameters to obtain log 2 fold change (MAP) and adjusted p-values (Benjamini-Hochberg procedure) (Love et al. (2014) Genorme Biol. 15:550). Genes were ranked by log 2 fold change (MAP), and GSEA were carried out using the GSEAPreranked tool (Mootha et al. (2003) Nat. Genet. 34:267-273; Subramanian et al. (2005) Proc. Natl. Acad. Sci. USA 102:15545-15550). PCA were carried out using DESeq2.

## O=C(c1cc(Cc2n[nH]c(=O)c3ccccc23)ccc1F)N1CCN(C(=O)C2CC2)CC1 [olaparib, Olaparib]
Brca1-null ID8 tumors; STING-KO hosts
  tumor growth (tumor weights): little effect
Brca1-null ID8 tumors; WT host
  abundance of intratumoral p-TBK1+ DCs: increased abundance
Brca1-null ID8 tumors; WT mice
  tumor growth (tumor weights): significantly inhibited the tumor growth
PPM cells
  cytosolic dsDNAs and micronuclei: not
PPM tumor bearing mice
  intratumoral immune responses in PPM tumor bearing mice: not found
PBM tumor tissues
  GSEA: expression of immune-related gene sets: markedly upregulated expression of genes associated with immune response, T-cell activation and interferon-γ (IFNγ) response

Reference: US20200268864A1, “CANCER VACCINE COMPOSITIONS AND METHODS FOR USING SAME TO TREAT CANCER” (Dana-Farber Cancer Institute, Inc., priority 2017, published 2020)
